Laboratory results: ChEMBL document CHEMBL1134228, “Structure-activity analysis of truncated orexin-A analogues at the orexin-1 receptor” (Bioorg Med Chem Lett, 2001)
Calls of active or inactive are those of the source. The rule behind the calls is not given here.

Molecular target: T1, Orexin/Hypocretin receptor type 1 (Homo sapiens, UniProt O43613)
T1 sequence (O43613 whole entry): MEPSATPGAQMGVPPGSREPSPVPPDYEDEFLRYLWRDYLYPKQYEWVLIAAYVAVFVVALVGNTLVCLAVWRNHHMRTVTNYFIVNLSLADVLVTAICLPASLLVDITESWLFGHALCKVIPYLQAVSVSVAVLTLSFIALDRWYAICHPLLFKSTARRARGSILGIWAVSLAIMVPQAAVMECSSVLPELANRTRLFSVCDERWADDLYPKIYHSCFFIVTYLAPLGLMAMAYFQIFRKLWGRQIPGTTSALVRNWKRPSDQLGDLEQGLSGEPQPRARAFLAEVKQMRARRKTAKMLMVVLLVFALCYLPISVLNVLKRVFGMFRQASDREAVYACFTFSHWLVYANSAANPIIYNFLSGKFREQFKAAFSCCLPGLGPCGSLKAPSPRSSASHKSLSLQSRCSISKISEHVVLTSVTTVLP
Test: Binding affinity to Orexin receptor type 1 was determined using laser scanning cytometry
Conditions: not given
In the case of CC[C@H](C)[C@H](NC(=O)CNC(=O)[C@H](C)NC(=O)[C@H](C)NC(=O)[C@H](Cc1cnc[nH]1)NC(=O)[C@H](CC(N)=O)NC(=O)CNC(=O)[C@H](C)NC(=O)CNC(=O)[C@H](Cc1cnc[nH]1)NC(=O)[C@H](CC(C)C)NC(=O)[C@H](CC(C)C)NC(=O)[C@H](CCC(=O)O)NC(=O)[C@H](Cc1ccc(O)cc1)NC(=O)[C@H](CC(C)C)NC(=O)[C@@H](N)CCCNC(=N)N)C(=O)N[C@@H](CC(C)C)C(=O)N[C@H](C(=O)N[C@@H](CC(C)C)C(N)=O)[C@@H](C)O, the Ki is reported as 0.269 µM. Molecule H-ELLHGAGNHAAGILTL-NH2 has a Ki of 66.1 µM.

Test system: CHO
Test: Percentage response for agonist like activity at 10 uM, relative to maximal orexin-A induced response in CHO cells was determined
Format: functional, Cricetulus griseus
Conditions: not given
For H-YELLHGAGNHAAGILTL-NH2, the Activity was 40%. Molecule H-RLYELLHGAGNHAAGIATL-NH2 has an Activity of 12%. H-RLYELLHGAGNAAAGILTL-NH2 gave an Activity of 61%. H-RLYELLHGAGNHAAGILTA-NH2 showed an Activity of 15%. H-RLYEALHGAGNHAAGILTL-NH2 gave an Activity of 60%. CC[C@H](C)[C@H](NC(=O)[C@@H](C)NC(=O)[C@H](C)NC(=O)[C@H](C)NC(=O)[C@H](Cc1c[nH]cn1)NC(=O)[C@H](CC(N)=O)NC(=O)CNC(=O)[C@H](C)NC(=O)CNC(=O)[C@H](Cc1c[nH]cn1)NC(=O)[C@H](CC(C)C)NC(=O)[C@H](CC(C)C)NC(=O)[C@H](CCC(=O)O)NC(=O)[C@H](Cc1ccc(O)cc1)NC(=O)[C@H](CC(C)C)NC(=O)[C@@H](N)CCCN=C(N)N)C(=O)N[C@@H](CC(C)C)C(=O)N[C@H](C(=O)N[C@@H](CC(C)C)C(N)=O)[C@@H](C)O showed an Activity of 15%. Molecule H-ELLHGAGNHAAGILTL-NH2 has an Activity of 13%. In the case of H-RLYELLHGAGNHAAGILAL-NH2, the Activity is reported as 39%. Molecule H-RLYELAHGAGNHAAGILTL-NH2 has an Activity of 37%. H-RAYELLHGAGNHAAGILTL-NH2 showed an Activity of 71%. Molecule H-LLHGAGNHAAGILTL-NH2 has an Activity of 16%.

Test system: not listed separately
Test: Functional potency was determined by concentration required for activation of OX1 (Orexin-1) receptor expressed in chinese hamster ovary cells (CHO) and increasing the intracellular calcium concentration
Format: cell-based
Conditions: Cricetulus griseus
For H-RLYELLHAAGNHAAGILTL-NH2, the EC50 was 646 nM. Molecule H-RLYELLHGAANHAAGILTL-NH2 has an EC50 of 832 nM. For CC[C@H](C)[C@H](NC(=O)CNC(=O)[C@H](C)NC(=O)[C@H](C)NC(=O)[C@H](Cc1cnc[nH]1)NC(=O)[C@H](CC(N)=O)NC(=O)CNC(=O)[C@H](C)NC(=O)CNC(=O)[C@H](Cc1cnc[nH]1)NC(=O)[C@H](CC(C)C)NC(=O)[C@H](CC(C)C)NC(=O)[C@H](CCC(=O)O)NC(=O)[C@H](Cc1ccc(O)cc1)NC(=O)[C@H](CC(C)C)NC(=O)[C@@H](N)CCCNC(=N)N)C(=O)N[C@@H](CC(C)C)C(=O)N[C@H](C(=O)N[C@@H](CC(C)C)C(N)=O)[C@@H](C)O, the EC50 was 355 nM. With H-ALYELLHGAGNHAAGILTL-NH2 the EC50 was 347 nM. Work on H-RLYELLAGAGNHAAGILTL-NH2 yielded an EC50 of 1290 nM. With H-RLYALLHGAGNHAAGILTL-NH2 the EC50 was 195 nM. In the case of H-RLAELLHGAGNHAAGILTL-NH2, the EC50 is reported as 776 nM.

Test system: CHO
Test: Percentage response for agonist like activity at 10 uM, relative to maximal orexin-A induced response in CHO cells was determined; Inactive
Format: functional, cell-based
Conditions: Cricetulus griseus
With H-GILTL-NH2 the Activity was “inactive”. With CC[C@H](C)[C@H](NC(=O)CNC(=O)[C@H](C)NC(=O)[C@H](C)NC(=O)[C@H](Cc1c[nH]cn1)NC(=O)[C@H](CC(N)=O)NC(=O)CNC(=O)[C@H](C)NC(=O)CNC(=O)[C@H](Cc1c[nH]cn1)NC(=O)[C@H](CC(C)C)NC(=O)[C@H](CC(C)C)NC(=O)[C@H](CCC(=O)O)NC(=O)[C@H](Cc1ccc(O)cc1)NC(=O)[C@H](CC(C)C)NC(=O)[C@@H](N)CCCN=C(N)N)C(=O)N[C@@H](CC(C)C)C(=O)N[C@@H](C(=O)N[C@@H](CC(C)C)C(N)=O)[C@@H](C)O the Activity was “inactive”.

Test system: CHO
Test: Percentage response at 10 uM, relative to maximal orexin-A induced response; Inactive
Format: functional, cell-based
Conditions: Cricetulus griseus
In the case of H-RLYELLHGAGNHAAGALTL-NH2, the Activity is reported as “inactive”.

Molecular target: T2, Orexin/Hypocretin receptor type 1 (Homo sapiens) (UniProt O43613)
T2 sequence (whole entry): T1 sequence (O43613 whole entry)
Test: Compound was tested for antagonist activity expressed as percentage response at 10 uM, relative to maximal orexin-A induced response against OX1 receptor; IA is Inactive
Format: functional
Conditions: not given
For H-GNHAAGILTL-NH2, the Activity was “inactive”.
